Reference: patent US20220117266A1, “NICKEL CHELATION THERAPY” (priority 2019, published 2022)
Where two headings read alike, the source gives them in different places.

Legend:
[1] = system: MDR S. Typhimurium (ATCC 700408); assay: DMG growth inhibition in liquid culture (CFU/mL); assay type: cell-based, Salmonella enterica serovar Typhimurium
Experimental: (§1) Growth conditions. All strains were routinely grown on LB agar plates or in LB broth. For DMG-growth inhibition study, S. Typhimurium strains ATCC 14028 and ATCC 700408 were grown in M9 minimal medium (M9 minimal salts, 0.4% glucose, 2 mM MgSO4, 0.1 mM CaCl2), and 1 μg/mL thiamine, pH 7.2). K. pneumoniae was grown in “W-U” medium, modified from Bender et al. 1977 129:1001-1009, containing 60 mM K2HPO4, 33 mM KH2PO4, 0.4 mM MgSO4, 0.4% Glucose, and 5 mM urea (instead of KNO3), pH 7.4. Briefly, overnight cultures of S. Typhimurium and K. pneumoniae were harvested, spun at 14,000 rpm for five minutes, washed once with either M9 (S. Typhimurium) or W-U (K. pneumoniae) and resuspended in either M9 (S. Typhimurium) or W-U (K. pneumoniae). […] Cells were incubated for 24 hours at 37° C. with shaking at 250 rpm, then serially diluted in PBS and 5 μL of each dilution was spotted in triplicate on LB plate. Colony forming units (CFU) were counted after 16 hours at 37° C. Each growth experiment was done at least three times.

[2] = system: S. Typhimurium (ATCC 14028); assay: DMG growth inhibition in liquid culture (CFU/mL); assay type: cell-based, Salmonella enterica serovar Typhimurium
Experimental: as §1

MDR K. pneumoniae = assay: Galleria mellonella infection model; assay type: in vivo; conditions: 5 μl of 250 mM DMG (approx. 0.38 mg) injected five to ten minutes prior to bacterial challenge
Experimental: (§2) Attempts to establish a reliable K. pneumoniae infection model in mice failed, so an alternate animal model was chosen.
(§3) Galleria mellonella (wax moth) experiments. Wax moth larvae were obtained from local pet stores, from two different suppliers: the bug company (Ham Lake, Minn.; www.ebugco.com) and Timberline (Marion, Ill.; www.timberlinefresh.com). Larvae were stored in wood shavings at 4° C. in the dark and used within two weeks after purchase. Only larvae weighing 300±50 mg were selected for the experiments. Groups of ten larvae were used for each experiment. The site of injection (last right or left proleg) was disinfected with ethanol 70% (vol/vol) before and after each injection. A 10 μL-Hamilton syringe fitted with a […] needle (Becton Dickinson, Franklin Lakes, N.J.) was used to inject 5 μL. After injection, larvae were kept in 9.2-cm Petri dishes at 37° C. in the dark with no food. Larvae were monitored daily for […] and mortality (as defined by change of pigmentation and absence of response following physical stimulation) was recorded. […] Bacterial suspensions were prepared as follows: cells were grown overnight in 5 mL of Mueller Hinton broth, harvested, washed once, and resuspended in sterile 0.8% NaCl to a final OD600 of 0.1 (approximately 10^8 CFU/mL, as determined by CFU counts on serially diluted samples).

MDR S. Typhimurium = assay: Galleria mellonella infection model; assay type: in vivo; conditions: 5 μl of 250 mM DMG (approx. 0.38 mg) injected five to ten minutes prior to bacterial challenge
Experimental: as §2, §3

[3] = system: C. jejuni (strain NCTC 11168); assay: C. jejuni-chicken colonization experiment; assay type: in vivo, chickens
Experimental: Since chickens are natural hosts for C. jejuni, and chicken meat is one of the main sources of campylobacteriosis in humans, it was important to test the efficacy of DMG alone or in combination with copper in this animal model. Two independent trials were conducted, as described in FIG. 22. In both trials, the treatment was administered through ad libitum drinks, starting two to three days before C. jejuni inoculation (with strain NCTC 11168), and going through the end of each experiment. […] Nine days after inoculation with C. jejuni, chickens were euthanized, and their ceca were isolated for bacterial count. […] The treatment was administered two days before inoculation with C. jejuni, and chicken ceca were harvested eight days after inoculation.

Aβ40 peptide = Aβ40 peptide (Homo sapiens, UniProt P05067); assay: Thioflavin T (ThT)-based Aβ40 aggregation assay; assay type: biochemical; set-up: purchased rPeptides, Watkinsville, Ga., USA kit #A-1180-1; host or cells: E. coli; conditions: for remaining activity at 100 µM: DMG 100 μM; for remaining activity at 100 µM / remaining activity at 500 µM / remaining activity at 1000 µM: read-out: Relative Aβ40 aggregation rate (% control); for remaining activity at 500 µM: DMG 500 μM; for remaining activity at 1000 µM: DMG 1000 μM
Experimental: Amyloid Beta aggregation. […] This kit contained human recombinant Aβ40 peptide (>97% pure, as determined by manufacturer's HPLC) with the following sequence […] (SEQ ID NO:1), as provided by the manufacturer. […] The aggregation of Aβ40, was shown by the increase in fluorescence (lex=440 nm/lem=485 nm) over time, was followed for 60 min or 120 min, with reading every three or five min, using a Synergy MX reader (Biotek, Winooski, Vt.). A ThT-only background control (no Aβ40 peptide) was included in triplicate in all experiments and subtracted from all readings. The aggregation rate, defined as the increase in fluorescence per min (RFU/min), was calculated by using the formula [A(440,485) at T40min)−A(440,485) at T20min]/20.

[4] = Experiment 1, ad libitum CuSO4 (0.2 mM) + DMG (10 mM), total n=6, 9 days p.i.
[5] = Experiment 2, ad libitum CuSO4 (0.2 mM) + DMG (15 mM), total n=5, 8 days p.i.
[6] = Experiment 2, ad libitum DMG (15 mM), total n=7, 8 days p.i.
[7] = first trial, DMG (10 mM) combined with CuSO4 (0.2 mM)
[8] = experiment B, no supplemental metal
[9] = experiment C, no supplemental metal

Sequence of Aβ40 peptide (P05067 672-711): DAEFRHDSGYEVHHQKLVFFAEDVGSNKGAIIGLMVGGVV

## CC(=NO)C(C)=NO [DMG, dimethylglyoxime]
[1]; DMG at 2.5 mM, 5 mM, or 7.5 mM
  effect on bacterial growth: no measurable effect
[1]; Salmonella enterica, 24 h
  inhibition at 10000 µM: > 100%
[2]; DMG at 2.5 mM, 5 mM, or 7.5 mM
  effect on bacterial growth: no measurable effect
[2]; Salmonella enterica, 24 h
  inhibition at 10000 µM: > 100%
MDR K. pneumoniae
  survival rate of larvae: 40%
MDR S. Typhimurium
  survival rate of larvae: 60%
[3]; Experiment 1, ad libitum CuSO4 (0.2 mM) + DMG (10 mM), 9 days p.i.
  C. jejuni Average CFUs per g of cecum (x10^8): 1.12 x10^8 CFUs per g of cecum
[3]; [4]
  Chickens Cj-free (n=): 2
  Chickens Colonized (n=): 4
[3]; Experiment 2, ad libitum CuSO4 (0.2 mM) + DMG (15 mM), 8 days p.i.
  C. jejuni Average CFUs per g of cecum (x10^8): 1.99 x10^8 CFUs per g of cecum
[3]; [5]
  Chickens Cj-free (n=): 0
  Chickens Colonized (n=): 5
[3]; Experiment 2, ad libitum DMG (15 mM), 8 days p.i.
  C. jejuni Average CFUs per g of cecum (x10^8): 2.38 x10^8 CFUs per g of cecum
[3]; [6]
  Chickens Cj-free (n=): 1
  Chickens Colonized (n=): 6
[3]; first trial, Cu-DMG treated group (n=6)
  chickens in which C. jejuni was not recovered: 33%
[3]; [7]
  decrease in bacterial count in the cecum compared to the copper-only control: 5 fold
  decrease in bacterial count in the cecum compared to the water-only control: 3 fold
[3]; second trial, DMG (15 mM) combined with CuSO4 (0.2 mM)
  decrease in bacterial burden compared to the water control: approximately 3.5 fold
[3]; second trial, DMG only (15 mM)
  less bacterial colonization of the cecum compared to the water only control: approximately 3 fold
Aβ40 peptide; 500 mM or 1000 mM DMG (so in the source), no supplemented metal
  inhibition of Aβ40 aggregation: partial or full inhibition
Aβ40 peptide; experiment A, Cu 10 μM
  remaining activity at 100 µM: 54 ± 12%
Aβ40 peptide; experiment A, Ni 10 μM
  remaining activity at 100 µM: 58 ± 11%
Aβ40 peptide; experiment A, Zn 10 μM
  remaining activity at 100 µM: 457 ± 39%
Aβ40 peptide; experiment A, no supplemental metal
  remaining activity at 100 µM: 33 ± 2%
Aβ40 peptide; experiment B, Ni 100 μM
  remaining activity at 100 µM: 410 ± 91%
  remaining activity at 500 µM: < 1%
  remaining activity at 1000 µM: < 1%
Aβ40 peptide; [8]
  remaining activity at 100 µM: 15 ± 14%
  remaining activity at 500 µM: < 1%
  remaining activity at 1000 µM: < 1%
Aβ40 peptide; experiment B, Zn 100 μM
  remaining activity at 500 µM: 833 ± 156%
  remaining activity at 1000 µM: 328 ± 63%
Aβ40 peptide; experiment C, Cu 100 μM
  remaining activity at 100 µM: 66 ± 15%
  remaining activity at 500 µM: 49 ± 8%
  remaining activity at 1000 µM: 40 ± 3%
Aβ40 peptide; [9]
  remaining activity at 100 µM: 48 ± 8%
  remaining activity at 500 µM: 15 ± 5%
  remaining activity at 1000 µM: 21 ± 10%
Aβ40 peptide; increasing amounts of DMG in presence of 100 mM Cu^2+ or Zn^2+ (so in the source)
  inhibition of Aβ40 aggregation: partial inhibition
Aβ40 peptide; increasing amounts of DMG in presence of 100 mM Ni^2+ (so in the source)
  inhibition of Aβ40 aggregation: Complete inhibition
Aβ40 peptide; pH 6.5, 7.5 or 8.5, 25 mM Aβ40, CuSO4 25 mM, ZnSO4 10 mM or DMG 100 mM (so in the source)
  Aβ40 peptide aggregation under all pHs tested: negligible
